Source: patent US6706663B2, “Herbicidal 3-heterocyclic substituted benzisothiazole and benzisoxazole compounds” (Wyeth, priority 2000, dated 2004)

Assays:
[1] = tested on: ORYSAT (Rice, Tebonnet); test: Flooded paddy, post-transplant rice tolerance; assay type: in vivo, Oryza sativa, (L.) Tebonnet; conditions: in vivo
How it was run: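 Two ten-day-old Tebonnet rice seedlings transplanted into silt loam, then flooded with water held at 1.5–3 cm above soil; herbicide applied post-transplant. Plants kept in greenhouse and rated visually 0–9 versus untreated control for stand, vigor, malformation, size and chlorosis.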

[2] = tested on: IPOHE (Ipomoea hederacea); test: Postemergence herbicidal evaluation; assay type: in vivo, (L.) Jacq.; conditions: postemergence
How it was run: (§1)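 Visual 0–9 injury scores versus control plants, covering stand, vigour, malformation, size, chlorosis and general appearance, taken four to five weeks post-spray and averaged over replicate tests. Plants were sprayed at roughly two weeks old and held on greenhouse benches.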

[3] = tested on: ABUTH (Abutilon theophrasti); test: Preemergence herbicidal evaluation; assay type: in vivo, Medic.; conditions: preemergence, rated 4-5 weeks after treatment
[4] = tested on: AMBEL (Ambrosia artemisifolia); test: Preemergence herbicidal evaluation; assay type: in vivo, L.; conditions: preemergence, rated 4-5 weeks after treatment
How it was run: (§2)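 Preemergence soil spray, aq. acetone; greenhouse; visual 0–9 score vs control at 4–5 wk.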

[5] = tested on: GALAP (Galium aparine); test: Preemergence herbicidal evaluation; assay type: in vivo; conditions: preemergence, rated 4-5 weeks after treatment
How it was run: as §2

[6] = tested on: ZEAMX (Corn, Field); test: Postemergence herbicidal evaluation; assay type: in vivo, Zea mays, L.; conditions: postemergence
How it was run: as §1

[7] = tested on: GLXMA (Soybean); test: Preemergence herbicidal evaluation; assay type: in vivo, Glycine max, (L.) Merr.; conditions: preemergence, rated 4-5 weeks after treatment
[8] = tested on: MOOVA (Monochoria vaginalis); test: Flooded paddy, preemergence weed control; assay type: in vivo, Presl.; conditions: rated 3-4 weeks after treatment, 0-9 rating scale
How it was run: (§3)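 Silt loam, sowing depth ≤0.5 cm; permanent flood 1.5–3 cm above soil; greenhouse culture after treatment. Readout: 0-9 visual scale (stand, vigor, malformation, size, chlorosis, appearance) vs control.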

[9] = tested on: GLXMAW (Soybean, Williams); test: Postemergence herbicidal evaluation; assay type: in vivo, Glycine max, (L.) Merr. cv Williams; conditions: postemergence
How it was run: as §1

[10] = tested on: ZEAMX (Corn, Field); test: Preemergence herbicidal evaluation; assay type: in vivo, Zea mays, L.; conditions: preemergence, rated 4-5 weeks after treatment
[11] = tested on: CHEAL (Chenopodium album); test: Postemergence herbicidal evaluation; assay type: in vivo, L.; conditions: postemergence
How it was run: as §1

[12] = tested on: CASOB (Cassia obtusifolia); test: Postemergence herbicidal evaluation; assay type: in vivo, L.; conditions: postemergence
How it was run: as §1

[13] = tested on: AMBEL (Ambrosia artemisifolia); test: Postemergence herbicidal evaluation; assay type: in vivo, L.; conditions: postemergence
How it was run: as §1

[14] = tested on: ABUTH (Abutilon theophrasti); test: Postemergence herbicidal evaluation; assay type: in vivo, Medic.; conditions: postemergence
How it was run: as §1

[15] = tested on: GALAP (Galium aparine); test: Postemergence herbicidal evaluation; assay type: in vivo; conditions: postemergence
How it was run: as §1

[16] = tested on: ECHCG (Echinochloa crus-galli); test: Postemergence herbicidal evaluation; assay type: in vivo, (L.) Beau; conditions: postemergence
How it was run: as §1

[17] = tested on: IPOHE (Ipomoea hederacea); test: Preemergence herbicidal evaluation; assay type: in vivo, (L.) Jacq.; conditions: preemergence, rated 4-5 weeks after treatment
[18] = tested on: SAGPY (Sagittaria pygmaea); test: Flooded paddy, preemergence weed control; assay type: in vivo, L.; conditions: rated 3-4 weeks after treatment, 0-9 rating scale
How it was run: as §3

[19] = tested on: ECHCG (Echinochloa crus-galli); test: Preemergence herbicidal evaluation; assay type: in vivo, (L.) Beau; conditions: preemergence, rated 4-5 weeks after treatment
How it was run: as §2

[20] = tested on: TRZAWR (Wheat, Winter, cv Riband); test: Postemergence herbicidal evaluation; assay type: in vivo, Triticum aestivum; conditions: postemergence
How it was run: as §1

[21] = tested on: CYPIR (Cyperus iria); test: Flooded paddy, preemergence weed control; assay type: in vivo; conditions: rated 3-4 weeks after treatment, 0-9 rating scale
How it was run: as §3

[22] = tested on: ECHORC (Echinochloa oryzoides); test: Flooded paddy, preemergence weed control; assay type: in vivo, Echinochloa oryzoides (Ard.) Fritsch.; conditions: rated 3-4 weeks after treatment, 0-9 rating scale
How it was run: as §3

[23] = tested on: ORYSAT (Rice, Tebonnet); test: Postemergence herbicidal evaluation; assay type: in vivo, Oryza sativa, (L.) Tebonnet; conditions: postemergence
How it was run: as §1

**Q.** How did the “ORYSAT herbicidal rating (transplanted rice tolerance)” value [1] turn out when “1-methyl-3-[3-(4-oxo-delta-2-1,2,5-thiadiazolin-3-yl)-1,2-benzisothiazol-5-yl]-6-(trifluoromethyl)uracil S′,S′-dioxide [Compound 92]” was run?
**A.** 0.0

**Q.** What about the IPOHE herbicidal rating ([2]; rate 0.0320 kg/ha) of the same substance?
**A.** 6.0

**Q.** What about the IPOHE herbicidal rating ([2]; rate 0.0620 kg/ha) of the same substance?
**A.** 8.0

**Q.** And the IPOHE herbicidal rating ([2]; rate 0.1250 kg/ha)?
**A.** 8.0

**Q.** What about the “Preemergence herbicidal rating ABUTH” value ([3]; rate 0.0620 kg/ha) of the same substance?
**A.** 0.0

**Q.** What about the “Preemergence herbicidal rating ABUTH” value ([3]; rate 0.1250 kg/ha) of the same substance?
**A.** 0.0

**Q.** What about the “Preemergence herbicidal rating ABUTH” value ([3]; rate 0.2500 kg/ha) of the same substance?
**A.** 3.0

**Q.** What about the “Preemergence herbicidal rating AMBEL” value ([4]; rate 0.0620 kg/ha) of the same substance?
**A.** 0.0

**Q.** What about the “Preemergence herbicidal rating AMBEL” value ([4]; rate 0.1250 kg/ha) of the same substance?
**A.** 0.0

**Q.** What about the “Preemergence herbicidal rating AMBEL” value ([4]; rate 0.2500 kg/ha) of the same substance?
**A.** 0.0

**Q.** What about the “Preemergence herbicidal rating GALAP” value ([5]; rate 0.0620 kg/ha) of the same substance?
**A.** 0.0

**Q.** And the “Preemergence herbicidal rating GALAP” value ([5]; rate 0.1250 kg/ha)?
**A.** 0.0

**Q.** And the “Preemergence herbicidal rating GALAP” value ([5]; rate 0.2500 kg/ha)?
**A.** 2.0

**Q.** And the ZEAMX herbicidal rating ([6]; rate 0.0320 kg/ha)?
**A.** 2.0

**Q.** What about the ZEAMX herbicidal rating ([6]; rate 0.0620 kg/ha) of the same substance?
**A.** 2.5

**Q.** What about the ZEAMX herbicidal rating ([6]; rate 0.1250 kg/ha) of the same substance?
**A.** 3.0

**Q.** What about the “Preemergence herbicidal rating GLXMA” value ([7]; rate 0.0620 kg/ha) of the same substance?
**A.** 0.0

**Q.** What about the “Preemergence herbicidal rating GLXMA” value ([7]; rate 0.1250 kg/ha) of the same substance?
**A.** 0.0

**Q.** And the “Preemergence herbicidal rating GLXMA” value ([7]; rate 0.2500 kg/ha)?
**A.** 0.0

**Q.** And the MOOVA herbicidal rating ([8]; rate 0.0320 kg/ha)?
**A.** 0.0

**Q.** And the MOOVA herbicidal rating ([8]; rate 0.1250 kg/ha)?
**A.** 8.0

**Q.** And the GLXMAW herbicidal rating ([9]; rate 0.0320 kg/ha)?
**A.** 5.0

**Q.** What about the GLXMAW herbicidal rating ([9]; rate 0.0620 kg/ha) of the same substance?
**A.** 5.0

**Q.** And the GLXMAW herbicidal rating ([9]; rate 0.1250 kg/ha)?
**A.** 5.5

**Q.** And the “Preemergence herbicidal rating ZEAMX” value ([10]; rate 0.0620 kg/ha)?
**A.** 0.0

**Q.** And the “Preemergence herbicidal rating ZEAMX” value ([10]; rate 0.1250 kg/ha)?
**A.** 0.0

**Q.** And the “Preemergence herbicidal rating ZEAMX” value ([10]; rate 0.2500 kg/ha)?
**A.** 0.0

**Q.** And the CHEAL herbicidal rating ([11]; rate 0.0320 kg/ha)?
**A.** 3.0

**Q.** And the CHEAL herbicidal rating ([11]; rate 0.0620 kg/ha)?
**A.** 6.0

**Q.** And the CHEAL herbicidal rating ([11]; rate 0.1250 kg/ha)?
**A.** 6.0

**Q.** And the CASOB herbicidal rating ([12]; rate 0.0320 kg/ha)?
**A.** 4.0

**Q.** And the CASOB herbicidal rating ([12]; rate 0.0620 kg/ha)?
**A.** 5.0

**Q.** What about the CASOB herbicidal rating ([12]; rate 0.1250 kg/ha) of the same substance?
**A.** 5.0

**Q.** And the AMBEL herbicidal rating ([13]; rate 0.0320 kg/ha)?
**A.** 3.0

**Q.** What about the AMBEL herbicidal rating ([13]; rate 0.0620 kg/ha) of the same substance?
**A.** 5.0

**Q.** What about the AMBEL herbicidal rating ([13]; rate 0.1250 kg/ha) of the same substance?
**A.** 6.0

**Q.** And the ABUTH herbicidal rating ([14]; rate 0.0320 kg/ha)?
**A.** 6.0

**Q.** And the ABUTH herbicidal rating ([14]; rate 0.0620 kg/ha)?
**A.** 7.0

**Q.** And the ABUTH herbicidal rating ([14]; rate 0.1250 kg/ha)?
**A.** 9.0

**Q.** What about the GALAP herbicidal rating ([15]; rate 0.0320 kg/ha) of the same substance?
**A.** 2.0

**Q.** And the GALAP herbicidal rating ([15]; rate 0.0620 kg/ha)?
**A.** 3.0

**Q.** And the GALAP herbicidal rating ([15]; rate 0.1250 kg/ha)?
**A.** 4.0

**Q.** What about the ECHCG herbicidal rating ([16]; rate 0.0320 kg/ha) of the same substance?
**A.** 2.0

**Q.** And the ECHCG herbicidal rating ([16]; rate 0.0620 kg/ha)?
**A.** 3.0

**Q.** And the ECHCG herbicidal rating ([16]; rate 0.1250 kg/ha)?
**A.** 4.0

**Q.** And the “Preemergence herbicidal rating IPOHE” value ([17]; rate 0.0620 kg/ha)?
**A.** 0.0

**Q.** What about the “Preemergence herbicidal rating IPOHE” value ([17]; rate 0.1250 kg/ha) of the same substance?
**A.** 0.0

**Q.** What about the “Preemergence herbicidal rating IPOHE” value ([17]; rate 0.2500 kg/ha) of the same substance?
**A.** 4.0

**Q.** What about the SAGPY herbicidal rating ([18]; rate 0.0320 kg/ha) of the same substance?
**A.** 0.0

**Q.** And the SAGPY herbicidal rating ([18]; rate 0.1250 kg/ha)?
**A.** 0.0

**Q.** What about the “Preemergence herbicidal rating ECHCG” value ([19]; rate 0.0620 kg/ha) of the same substance?
**A.** 0.0

**Q.** And the “Preemergence herbicidal rating ECHCG” value ([19]; rate 0.1250 kg/ha)?
**A.** 0.0

**Q.** And the “Preemergence herbicidal rating ECHCG” value ([19]; rate 0.2500 kg/ha)?
**A.** 0.0

**Q.** What about the TRZAWR herbicidal rating ([20]; rate 0.0320 kg/ha) of the same substance?
**A.** 1.0

**Q.** And the TRZAWR herbicidal rating ([20]; rate 0.0620 kg/ha)?
**A.** 1.5

**Q.** And the TRZAWR herbicidal rating ([20]; rate 0.1250 kg/ha)?
**A.** 1.5

**Q.** What about the CYPIR herbicidal rating ([21]; rate 0.0320 kg/ha) of the same substance?
**A.** 0.0

**Q.** What about the CYPIR herbicidal rating ([21]; rate 0.1250 kg/ha) of the same substance?
**A.** 8.0

**Q.** What about the ECHORC herbicidal rating ([22]; rate 0.0320 kg/ha) of the same substance?
**A.** 0.0

**Q.** What about the ECHORC herbicidal rating ([22]; rate 0.1250 kg/ha) of the same substance?
**A.** 0.0

**Q.** What about the ORYSAT herbicidal rating ([23]; rate 0.0320 kg/ha) of the same substance?
**A.** 1.0

**Q.** What about the ORYSAT herbicidal rating ([23]; rate 0.0620 kg/ha) of the same substance?
**A.** 1.0

**Q.** What about the ORYSAT herbicidal rating ([23]; rate 0.1250 kg/ha) of the same substance?
**A.** 1.0
